Key:
[1] = Aqueous solubility by UPLC; assay type: physicochemical; settings: for Solubility in water: UPLC
Protocol: Acquity ultra performance liquid chromatography (UPLC) from Waters was used for solubility and stoichiometry determination. […] UPLC was equipped with Acquity PDA detector. UPLC mobile phase solvent A was 0.1% TFA in DI-water, solvent B was 0.1% TFA in acetonitrile.
Column temperature was 40±5° C. Acquity UPLC® HSS T3 1.8 μm, 2.1×50 mm column was used.
A known amount of sample was dissolved in water and analyzed by UPLC.

[2] = Deliquescence relative humidity (DRH) by water activity meter; assay type: physicochemical; settings: for DRH (deliquescence relative humidity): saturated aqueous solution with excess solid at 25° C.
From the text: If saturated in water with excess solid, a deliquescing compound or salt thereof equilibrated in a closed system at a given temperature produces a % RH in that closed system that is equal to its deliquescing % RH (DRH) at that temperature. Fractional relative humidity is equal to water activity (aw) in the vapor phase and at equilibrium in a closed system, the aw in an aqueous solution is equal to the aw in the vapor phase above the solution (see Equation 1).
A water activity meter was used to measure DRH for selected salts described herein. […] This instrument is designed with temperature control and a small headspace above the enclosed sample to establish equilibrium between solution and vapor phases quickly.

[3] = cited from earlier work
[4] = cited from earlier work; remark: listed apart in the source
[5] = Dynamic moisture-sorption (DMS) analysis; settings: for State of the sample after DMS analysis: after removal from the analyzer, PXRD where done; for DMS weight increase at 70% RH: adsorption cycle, 25° C., Form I
Protocol: Samples were prepared for DMS analysis by placing 5 mg to 20 mg of a sample in a tared sample holder. The sample was placed on the hang-down wire of the VTI balance. A drying step was run, typically at 40° C. and 0.5-1% RH for 1-2 h. The isotherm temperature is 25° C. […] A % weight change smaller than 0.010% over a specified number of minutes (typically 10-20), or up to 2 h, whichever occurs first, is required before continuing to the next % RH hold. The water content of the sample equilibrated as described above was determined at each % RH hold.

[6] = patients who completed 52 weeks of treatment according to the protocol
[7] = pivotal phase 3 program, up to two years
[8] = second phase 3 trial, top quartile of patients

CC1(C)C2CC[C@@]1(CS(=O)(=O)O)C(=O)C2.C[C@H]1CNCCc2ccc(Cl)cc21 [(R)-8-Chloro-1-methyl-2,3,4,5-tetrahydro-1H-3-benzazepine (1S)-(+)-10-Camsylate Salt]
Solubility in water [1]: 20 mg/mL | Deliquescence conclusion from DRH ([2]; 25° C.): not deliquescent | DRH (deliquescence relative humidity) [2]: 99.8 % RH

C[C@H]1CNCCc2ccc(Cl)cc21.C[C@H]1CNCCc2ccc(Cl)cc21.O=C(O)[C@@H](O)[C@H](O)[C@H](O)[C@@H](O)C(=O)O [Compound 1 Hemimucate Salt, Form I, (R)-8-Chloro-1-methyl-2,3,4,5-tetrahydro-1H-3-benzazepine Hemimucate]
Solubility in water [1]: 0.85 mg/mL

C[C@H]1CNCCc2ccc(Cl)cc21.Cl [lorcaserin, (R)-8-Chloro-1-methyl-2,3,4,5-tetrahydro-1H-3-benzazepine hydrochloride]
Average weight loss, % of body weight ([3]; 12 months, ITT-LOCF analysis): 5.8% | Average weight loss, pounds ([3]; 12 months, ITT-LOCF analysis): 12.7 pounds | Patients who lost greater than or equal to 5% of their body weight from baseline ([3]; 12 months, ITT-LOCF analysis): 47.5% | Patients who lost greater than or equal to 10% of their body weight from baseline ([3]; 12 months, ITT-LOCF analysis): 22.6% | Average weight loss of completers, % of body weight [3, 6]: 8.2% | Average weight loss of completers, pounds [3, 6]: 17.9 pounds | Tolerability ([3]; phase 3 trial): generally very well tolerated | FDA-defined valvulopathy (echocardiograms) ([3]; two-year treatment period): no apparent drug-related effect | Excess body weight lost ([4]; first phase 3 trial, based on a normal BMI of 25): about one-third | Patients who achieved at least 5% weight loss [4, 7]: About two-thirds | Patients who achieved at least 10% weight loss [4, 7]: over one-third | Average weight lost, % of weight ([4]; pivotal phase 3 program): about 8% | Depression or suicidal ideation ([4]; pivotal phase 3 program): no signal | Heart rate and blood pressure ([4]; pivotal phase 3 program): went down | Risk of cardiac valvulopathy ([4]; pivotal phase 3 program): did not increase the risk of cardiac valvulopathy | Average weight loss of the top quartile, % of body weight [4, 8]: 16% | Average weight loss of the top quartile, pounds [4, 8]: 35 pounds

(R)-8-Chloro-1-methyl-2,3,4,5-tetrahydro-1H-3-benzazepine Di-camphorate Salt Solvate
Solubility in water [1]: 38.6 mg/mL | Aqueous solubility expressed as the free base ([1]; water, pH 5.2): 12.3 mg/mL | DMS weight lost on the desorption phase ([5]; 25° C. and 10% RH): over 1.2% | State of the sample after DMS analysis [5]: crystalline phase did not change

(R)-8-Chloro-1-methyl-2,3,4,5-tetrahydro-1H-3-benzazepine Glucuronate Salt [Compound 1 Glucuronate Salt, Form I]
Solubility in water [1]: 2.5 mg/mL

(R)-8-Chloro-1-methyl-2,3,4,5-tetrahydro-1H-3-benzazepine Hemi-L-malate Salt [Compound 1 Hemi-L-Malate Salt, Form I]
Solubility in water [1]: 486.3 mg/mL | DRH (deliquescence relative humidity) [2]: 89.9 % RH

(R)-8-Chloro-1-methyl-2,3,4,5-tetrahydro-1H-3-benzazepine Pyroglutamate Salt [Compound 1 Pyroglutamate Salt, Form I]
DMS weight increase at 70% RH [5]: ~17% | DMS weight increase at 70% RH ([5]; listed as Compound 1 Pyrogluconate Salt): FIG. 21: 17-24% weight increase at 70% RH, about | State of the sample after DMS analysis [5]: sticky oil
